Reference: patent US4041048A, “3,2-Benzoxazepine derivatives” (Gruppo Lepetit S.p.A., priority 1971, dated 1977)

What was measured:
[1] = tested on: carrageenin-induced edema; assay: Carrageenin-induced edema test (anti-inflammatory activity); format: in vivo; settings: 100 mg/kg p.o., rats
From the text: |Carrageenin-induced edema test

[2] = Toxicity, LD50 in mice i.p.; settings: mouse, in vivo, ip
[3] = LD50 to which the edema test dose is related; format: in vivo; settings: rats
central nervous system [4] = assay: Decrease of spontaneous activity in mice (sedative effect); format: in vivo; settings: Mus musculus, ip, read-out: ED50, Spontaneous activity
Description: (§1) Decreasing the spontaneous activity in mice after intraperitoneal administration of an effective amount of the compounds was taken as a measure of the sedative effect, while impairment of motor coordination and righting reflex were related to hypnotic properties. The myorelaxing characteristics were evaluated by considering the body tone, while the anxiety-relieving effect was measured on the basis of the inhibition of the secondary conditioned avoidance response.

central nervous system [5] = assay: Inhibition of secondary conditioned avoidance response in mice (anxiety-relieving effect); format: in vivo; settings: Mus musculus, ip, read-out: ED50, Secondary conditioned avoidance response
Description: as §1

central nervous system [6] = assay: Body tone in mice (myorelaxing characteristics); format: in vivo; settings: Mus musculus, ip, read-out: ED50, Body tone
Description: as §1

central nervous system [7] = assay: Impairment of motor coordination and righting reflex in mice (hypnotic properties); format: in vivo; settings: Mus musculus, ip, read-out: ED50, Impairment of motor coordination and righting reflex
Description: as §1

SMILES | % Decrease of the edema [1] | LD50 [2] | dose of 100 mg/kg per os as fraction of the LD50 value [3] | ED50 (central nervous system [4]; i.p. in mice) | ED50 (central nervous system [5]; i.p. in mice) | ED50 (central nervous system [6]; i.p. in mice) | ED50 (central nervous system [7]; i.p. in mice) | also measured
CC1c2ccccc2CCON1C(=O)N1CCOCC1 (stereo not drawn) [Example 24] | 32% | > 500 mg/kg | about one-tenth to about one-fifth |  |  |  |  | 
CNC(=O)N1OCCc2ccccc2C1C (stereo not drawn) [Example 15, 1-Methyl-2-methylcarbamyl-1,2,4,5-tetrahydro-3,2-benzoxazepine] | 31.5% | > 500 mg/kg | about one-tenth to about one-fifth |  |  |  |  | 
CC1c2ccccc2CCON1C (stereo not drawn) [Example 7, 1,2-Dimethyl-1,2,4,5-tetrahydro-3,2-benzoxazepine] | 30% | > 500 mg/kg | about one-tenth to about one-fifth |  |  |  |  | 
C=CCN1OCCc2ccccc2C1C (stereo not drawn) [Example 17] |  | > 500 mg/kg |  |  |  |  |  | 
CC(=O)N1OCCc2ccccc2C1C (stereo not drawn) [Example 18, 2-acetyl-1-methyl-1,2,4,5-tetrahydro-3,2-benzoxazepine] |  |  |  | 100 mg/kg | 60 mg/kg | 200 mg/kg | 60 mg/kg | 
CC(C)=CC(=O)N1OCCc2ccccc2C1C (stereo not drawn) [Example 12, 1-Methyl-2-(3-methyl-2-butenoyl)-1,2,4,5-tetrahydro-3,2-benzoxazepine] |  | > 500 mg/kg |  |  |  |  |  | 
CC1NOCCc2ccccc21 (stereo not drawn) [Example 4, 1-Methyl-1,2,4,5-tetrahydro-3,2-benzoxazepine] |  |  |  | 100 mg/kg | 60 mg/kg | 20 mg/kg | 60 mg/kg | 
CC1c2ccccc2CCON1C(N)=O (stereo not drawn) [Example 6, 2-Carbamyl-1-methyl-1,2,4,5-tetrahydro-3,2-benzoxazepine] |  | > 500 mg/kg |  | 60 mg/kg | 15 mg/kg | 80 mg/kg | 60 mg/kg | 
NC(=O)OCCN1Cc2ccccc2CCO1 [Example 9, 2-(2-Carbamyloxyethyl)-1,2,4,5-tetrahydro-3,2-benzoxazepine] |  | > 500 mg/kg |  |  |  |  |  | ED50 (central nervous system [4]): 100 mg/kg; ED50 (central nervous system [5]): 30 mg/kg; ED50 (central nervous system [6]): 300 mg/kg; ED50 (central nervous system [7]): 100 mg/kg
CN1Cc2ccccc2CCO1 [Example 16] | 30.5% | > 500 mg/kg | about one-tenth to about one-fifth | 100 mg/kg | 40 mg/kg | 10 mg/kg | 120 mg/kg | 
CCN(CC)C(=O)N1OCCc2ccccc2C1C (stereo not drawn) [Example 11, 2-Diethylcarbamyl-1-methyl-1,2,4,5-tetrahydro-3,2-benzoxazepine] | 31% | > 500 mg/kg | about one-tenth to about one-fifth |  |  |  |  | 
